Reference: patent US20260306968A1, “METHOD FOR THE SEPARATION OF PHOSPHORUS STEREOISOMERS OF REMDESIVIR USING LIQUID-LIQUID CHROMATOGRAPHY” (ROTACHROM TECHNOLÓGIAI ZRT., priority 2023, published 2026)

Legend:
[1] = Várnai et al., J. Pharm. Biomed. Anal., 2021; cited from earlier work
[2] = Dissolving ability of the preferred solvent systems for the remdesivir mixture; assay type: physicochemical
Procedure: The preferred solvent systems are characterized by a short settling time (less than 30 sec), a good dissolving ability (more than 20 mg racemic mixture of remdesivir can be dissolved in 1 mL of the solvent system), while from the toxicological aspect, their components can be categorized into class 3 and/or class 4 solvents classes.

CCC(CC)COC(=O)[C@H](C)N[P@](=O)(OC[C@H]1O[C@@](C#N)(c2ccc3c(N)ncnn23)[C@H](O)[C@@H]1O)Oc1ccccc1 [remdesivir]
ionization constant (basic pka) [1]: 3.56

CCC(CC)COC(=O)[C@H](C)NP(=O)(OC[C@H]1O[C@@](C#N)(c2ccc3c(N)ncnn23)[C@H](O)[C@@H]1O)Oc1ccccc1 (mixture of isomers) [racemic mixture of remdesivir]
amount that can be dissolved in 1 mL of the solvent system [2]: more than 20 mg
